For data set [1] the following is noted: mice, oral; literature value; cited from earlier work.
A short description of data set [2]: comparison of toxicity in mice: oral LD50 by the Lichtfiel & Wilcoxon method. Format: in vivo. To be noted: mouse, in vivo, observation period 7 days, 95% confidence limit in brackets, read-out: LD50. The text has this: In Table 3 the mean lethal doses for mice, administered orally (LD50 determination by the […] & WILCOXON method - J.Pharmacol. Exp. Ther. 96,98 (1949)) are compared.

Data set [3] is described as follows: saluretic efficiency test in rats: elimination of water, sodium, chloride and potassium in 6 h urine after oral dosing. It is filed as in vivo. To be noted: rats, oral; for change in vivo at 40 µmol/kg / change in vivo at 80 µmol/kg: Rattus norvegicus. The procedure:
In order to test the saluretic efficiency of the compounds of the invention rats having a weight of 150 to 200 g were used. The animals were kept without food, but not without drinking water, for 15 hours before the beginning of the test. The test substances were administered to groups of four rats, of substantially equal weight, with a rigid stomach probe in a 1% methyl cellulose slime. The dose required per 100 g animal (unit dosage in μmol/kg body weight) was contained in one ml. Following the administration of the substance the rats were given 5 ml 0.9% sodium chloride solution per 100 g body weight p.o. and placed in a diuresis funnel after manually emptying the bladder. Urine was collected for 6 hours in an airconditioned chamber at 24°±1° C. and a relative air humidity of 50±5%. The diuretic effect of a particular dose was tested on at least two, but more frequently however on four to eight groups of rats. Two sodium chloride controls were also used for each test day.
At the end of the collecting periods the volumes of urine discharged per group were noted and the pH value and also the content of sodium, potassium (flame-photometrically) and chloride (measured argentometrically with the determination of the end point potentiometrically) were determined.
From the analysis results the quantities of Na^+, K^+ and Cl^- eliminated were calculated in […] body weight, and the values thus obtained compared with those of the control animals.
Means values and twice the standard deviation were calculated from the data for the sodium chloride controls, in order to determine the normal range. Then, for the values found with the test substances, the percentage variations from the average in respect of these parameters were calculated and tabulated. In this connection, with the results given in Table 1, the upper limit of the normal range, which is defined as the mean value plus twice the standard deviation, was selected as the reference quantity for the variations. In this way relevant hyper-eliminations could clearly be recognised.
In Table 2, the mean percentage variations in potassium elimination after administration of the compounds in accordance with the invention are compared with the mean value of the potassium elimination in the case of the sodium chloride controls. At the same time the […] ratio is given which provides conclusive evidence of the effective saluretic property. The larger this quotient is, then the more sodium than potassium is eliminated in proportion.

Setting [4] is: 6 h, 40 μmol/kg body wt., relative to mean K+ elimination of the controls, read-out: Mean percentage variation in the elimination of potassium.
The mark [5] stands for this setting: 40 μmol/kg body wt., deviation from control mean plus twice the standard deviation, 6 h urine, read-out: Mean percentage variation in the elimination of Chloride.
[6] abbreviates: 40 μmol/kg body wt., deviation from control mean plus twice the standard deviation, 6 h urine, read-out: Mean percentage variation in the elimination of H2O.
The mark [7] stands for this setting: 40 μmol/kg body wt., deviation from control mean plus twice the standard deviation, 6 h urine, read-out: Mean percentage variation in the elimination of Sodium.
Where [8] appears, read: 80 μmol/kg body wt., deviation from control mean plus twice the standard deviation, 6 h urine, read-out: Mean percentage variation in the elimination of Chloride.
The mark [9] stands for this setting: 80 μmol/kg body wt., deviation from control mean plus twice the standard deviation, 6 h urine, read-out: Mean percentage variation in the elimination of H2O.
The mark [10] stands for this setting: 80 μmol/kg body wt., deviation from control mean plus twice the standard deviation, 6 h urine, read-out: Mean percentage variation in the elimination of Sodium.

The source of these data is US4361573A, “α,α-Diaryl-β-(tert-amino)-propanols and diuretic pharmaceutical compositions containing them” (Temmler AG, priority 1974, dated 1982).

Where two headings read alike, the source gives them in different places.

In the case of `N=C(N)NC(=O)c1nc(Cl)c(N)nc1N` [N-amidino-3.5-diamino-6-chloropyrazinocarboxamide], the median lethal dose (LD50) in data set [1] was 70 mg/kg.
Turning to `COc1ccc(C(C)(C)C)cc1C(O)(c1ccccc1)C(C)N1CCCCC1` (stereo not shown) [T 2259, 1-(2'-methoxy-5'-tertiary-butylphenyl)-1-phenyl-2-piperidino-propan-1-ol], in data set [2], the LD50 amounted to 560 mg/kg. Besides, the change in vivo at 40 µmol/kg turned out to be 19.4% in data set [3] (setting [4]), 94% in data set [3] (setting [5]), 46.5% in data set [3] (setting [6]) and 28.7% in data set [3] (setting [7]). The change in vivo at 80 µmol/kg in data set [3] (6 h, 80 μmol/kg body wt., relative to mean K+ elimination of the controls, read-out: Mean percentage variation in the elimination of potassium) amounted to 38.8%; in data set [3] (setting [8]), 110%; in data set [3] (setting [9]), 76.6%; in data set [3] (setting [10]), 59.8%. In addition, the “Quotient Na/K” value in data set [3] (40 μmol/kg body wt.) is listed as 6.40; in data set [3] (80 μmol/kg body wt.) it was 6.84.
For the compound `CCOc1ccc(C(O)(c2cc(C(C)C)c(OCC)c(C(C)C)c2)C(C)N2CCCCC2)cc1` (stereo not shown) [T 2453, 1-(4'-ethoxy-3',5'-diisopropylphenyl)-1-(4"-ethoxyphenyl)-2-piperidino-propan-1-ol], the LD50 in data set [2] came to 700 mg/kg. Moreover, the change in vivo at 40 µmol/kg in data set [3] (setting [4]) was -2%; in data set [3] (setting [5]) it was 6.9%; in data set [3] (setting [6]), 13.4%; in data set [3] (setting [7]) it was 7.6%. In addition, the change in vivo at 80 µmol/kg in data set [3] (setting [8]) worked out at 31.2%; in data set [3] (setting [9]) it was 51.7%; in data set [3] (setting [10]) it was 62.2%. The “Quotient Na/K” value is listed as 6.52 in data set [3] (40 μmol/kg body wt.) and 9.63 in data set [3] (80 μmol/kg body wt.).

As usually defined, the LD50 is the dose expected to kill half of the subjects tested.
